A value given as a limit tells only on which side of the number the result lay.

The assay concerns SU-DHL-4 cell line. Kind of assay: SU-DHL-4 cell proliferation assay (Cell Titer-Glo viability). The class given is cell-based. The following applies: Homo sapiens; cell viability IC50 activity level, DLBCL cell line SU-DHL-4, 120 hours post-treatment; read-out: SU-DHL-4 Act. Summed up:
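Viability read by ATP luminescence (Cell Titer-Glo) at the start and after 120 h of growth at 37°C in 5% CO2. DLBCL cells were seeded at 500 per well with compound across 0.5 nM–10 μM in 20 points, 0.1% DMSO. A four-parameter sigmoidal fit gave IC50 as 50% of DMSO control.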
`O=C1CCC(N2C(=O)c3cccc(NCc4ccc(CN5CCC6(CCOC6)CC5)cc4F)c3C2=O)C(=O)N1` (stereo not shown) [Cpd 231, 4-(4-(2-oxa-8-azaspiro[4.5]decan-8-ylmethyl)-2-fluorobenzylamino)-2-(2,6-dioxopiperidin-3-yl)isoindoline-1,3-dione]: the IC50 was less than 200 nM. The value for `Cc1cc(CNc2cccc3c2C(=O)N(C2CCC(=O)NC2=O)C3=O)ccc1CN1CC2(CCCO2)C1` (stereo not shown) [Cpd 232, 4-(4-(5-oxa-2-azaspiro[3.4]octan-2-ylmethyl)-3-methylbenzylamino)-2-(2,6-dioxopiperidin-3-yl)isoindoline-1,3-dione] was less than 200 nM. Turning to `Cc1cc(CNc2cccc3c2C(=O)N(C2CCC(=O)NC2=O)C3=O)ccc1CN1CCC2(CCOC2)CC1` (stereo not shown) [Cpd 233, 4-(4-(2-oxa-8-azaspiro[4.5]decan-8-ylmethyl)-3-methylbenzylamino)-2-(2,6-dioxopiperidin-3-yl)isoindoline-1,3-dione], the IC50 is less than 200 nM. In the case of `O=C1CCC(N2C(=O)c3cccc(NCc4ccc(CN5CCC6(CCOCC6)CC5)cc4F)c3C2=O)C(=O)N1` (stereo not shown) [Cpd 234, 4-(4-(3-oxa-9-azaspiro[5.5]undecan-9-ylmethyl)-2-fluorobenzylamino)-2-(2,6-dioxopiperidin-3-yl)isoindoline-1,3-dione], the IC50 is less than 200 nM.

Take `CC1(C)CN(C2CN(Cc3ccc(CNc4cccc5c4C(=O)N(C4CCC(=O)NC4=O)C5=O)cc3)C2)CCO1` (stereo not shown) [Cpd 235, 4-(4-((3-(2,2-dimethylmorpholino)azetidin-1-yl)methyl)benzylamino)-2-(2,6-dioxopiperidin-3-yl)isoindoline-1,3-dione]: the IC50 lay in the range of 501 to 750 nM. The result for `Cc1cc(CNc2cccc3c2C(=O)N(C2CCC(=O)NC2=O)C3=O)ccc1CN1CCC2(CCOCC2)CC1` (stereo not shown) [Cpd 236, 4-(4-(3-oxa-9-azaspiro[5.5]undecan-9-ylmethyl)-3-methylbenzylamino)-2-(2,6-dioxopiperidin-3-yl)isoindoline-1,3-dione] reads less than 200 nM; that for `CC1(C)COCCN1C1CN(Cc2ccc(CNc3cccc4c3C(=O)N(C3CCC(=O)NC3=O)C4=O)c(F)c2)C1` (stereo not shown) [Cpd 237, 4-(4-((3-(3,3-dimethylmorpholino)azetidin-1-yl)methyl)-2-fluorobenzylamino)-2-(2,6-dioxopiperidin-3-yl)isoindoline-1,3-dione], less than 200 nM.

With `Cc1cc(CNc2cccc3c2C(=O)N(C2CCC(=O)NC2=O)C3=O)ccc1CN1CC(N2CCOCC2(C)C)C1` (stereo not shown) [Cpd 238, 4-(4-((3-(3,3-dimethylmorpholino)azetidin-1-yl)methyl)-3-methylbenzylamino)-2-(2,6-dioxopiperidin-3-yl)isoindoline-1,3-dione], the IC50 is less than 200 nM.

Regarding `CC1(C)COCCN1C1CN(Cc2ccc(CNc3cccc4c3C(=O)N(C3CCC(=O)NC3=O)C4=O)cc2)C1` (stereo not shown) [Cpd 239, 4-(4-((3-(3,3-dimethylmorpholino)azetidin-1-yl)methyl)benzylamino)-2-(2,6-dioxopiperidin-3-yl)isoindoline-1,3-dione], the IC50 is 501 to 750 nM. The result for `Cc1cc(CNc2cccc3c2C(=O)N(C2CCC(=O)NC2=O)C3=O)ccc1CN1CC(N2[C@H](C)COC[C@@H]2C)C1` (stereo partly drawn) [Cpd 240, 4-(4-((3-((3S,5R)-3,5-dimethylmorpholino)azetidin-1-yl)methyl)-3-methylbenzylamino)-2-(2,6-dioxopiperidin-3-yl)isoindolinne-1,3-dione] reads 200 to 500 nM. The value for `O=C1CCC(N2C(=O)c3cccc(NCc4ccc(CN5CC6(CCOC6)C5)cc4F)c3C2=O)C(=O)N1` (stereo not shown) [Cpd 241, 4-(4-(6-oxa-2-azaspiro[3.4]octan-2-ylmethyl)-2-fluorobenzylamino)-2-(2,6-dioxopiperidin-3-yl)isoindoline-1,3-dione] was less than 200 nM; that for `O=C1CCC(N2C(=O)c3cccc(NCc4ccc(CN5CCCOCC5)cc4F)c3C2=O)C(=O)N1` (stereo not shown) [Cpd 242, 4-(4-((1,4-oxazepan-4-yl)methyl)-2-fluorobenzylamino)-2-(2,6-dioxopiperidin-3-yl)isoindoline-1,3-dione] was 200 to 500 nM. The result for `Cc1cc(CNc2cccc3c2C(=O)N(C2CCC(=O)NC2=O)C3=O)ccc1CN1CC2(CCOC2)C1` (stereo not shown) [Cpd 243, 4-(4-(6-oxa-2-azaspiro[3.4]octan-2-ylmethyl)-3-methylbenzylamino)-2-(2,6-dioxopiperidin-3-yl)isoindoine-1,3-dione] reads less than 200 nM. `Cc1cc(CNc2cccc3c2C(=O)N(C2CCC(=O)NC2=O)C3=O)ccc1CN1CCCOCC1` (stereo not shown) [Cpd 244, 4-(4-((1,4-oxazepan-4-yl)methyl)-3-methylbenzylamino)-2-(2,6-dioxopiperidin-3-yl)isoindoline-1,3-dione]: the IC50 was 501 to 750 nM. As to `CC1(C)CN(C2CN(Cc3ccc(CNc4cccc5c4C(=O)N(C4CCC(=O)NC4=O)C5=O)c(F)c3)C2)CCO1` (stereo not shown) [Cpd 245, 4-(4-((3-(2,2-dimethylmorpholino)azetidin-1-yl)methyl)-2-fluorobenzylamino)-2-(2,6-dioxopiperidin-3-yl)isoindoline-1,3-dione], the IC50 is less than 200 nM. For `O=C1CCC(N2C(=O)c3cccc(NCc4ccc(CN5CC(N6C7CCC6COC7)C5)cc4F)c3C2=O)C(=O)N1` (stereo not shown) [Cpd 246, 4-(4-((3-(3-oxa-8-azabicyclo[3.2.1]octan-8-yl)azetidin-1-yl)methyl)-2-fluorobenzylamino)-2-(2,6-dioxopiperidin-3-yl)isoindoline-1,3-dione], the IC50 is less than 200 nM.

For the molecule `Cc1cc(CNc2cccc3c2C(=O)N(C2CCC(=O)NC2=O)C3=O)ccc1CN1CC(N2C3CCC2COC3)C1` (stereo not shown) [Cpd 247, 4-(4-((3-(3-oxa-8-azabicyclo[3.2.1]octan-8-yl)azetidin-1-yl)methyl)-3-methylbenzylamino)-2-(2,6-dioxopiperidin-3-yl)isoindoline-1,3-dione], the IC50 is less than 200 nM. The value for `O=C1CCC(N2C(=O)c3cccc(NCc4ccc(CN5CC(N6C7CCC6COC7)C5)cc4)c3C2=O)C(=O)N1` (stereo not shown) [Cpd 248, 4-(4-((3-(3-oxa-8-azabicyclo[3.2.1]octan-8-yl)azetidin-1-yl)methyl)benzylamino)-2-(2,6-dioxopiperidin-3-yl)isoindoline-1,3-dione] was less than 200 nM.

For the molecule `C[C@@H]1COC[C@H](C)N1C1CN(Cc2ccc(CNc3cccc4c3C(=O)N(C3CCC(=O)NC3=O)C4=O)c(F)c2)C1` (stereo partly drawn) [Cpd 249, 4-(4-((3-((3S,5R)-3,5-dimethylmorpholino)azetidin-1-yl)methyl)-2-fluorobenzylamino)-2-(2,6-dioxopiperidin-3-yl)isoindoline-1,3-dione], the IC50 was less than 200 nM.

Values taken from US11358952B2, “Substituted 4-aminoisoindoline-1,3-dione compounds, compositions thereof, and methods of treatment therewith” (Celgene Corporation, priority 2018, dated 2022).
